Laboratory results: patent publication US5468757A, “6-azaindole thromboxane synthase inhibitors” (Eli Lilly and Company, priority 1994, dated 1995)

Key:
[1] = molecular target: T1, thromboxane synthase (Homo sapiens, UniProt P24557); assay: Thromboxane Synthase Inhibition (TSI) Assay: serum TXB2 by radioimmunoassay in whole human blood; type: cell-based; details: for Serum TXB2: mean ± SE, n = 3, vehicle 375
T1 construct: incubated with fresh whole human blood that had been anticoagulated with 0.38% trisodium citrate; from tissue; host or cells: fresh whole human blood (citrated, recalcified)
T1 sequence (P24557 1-533): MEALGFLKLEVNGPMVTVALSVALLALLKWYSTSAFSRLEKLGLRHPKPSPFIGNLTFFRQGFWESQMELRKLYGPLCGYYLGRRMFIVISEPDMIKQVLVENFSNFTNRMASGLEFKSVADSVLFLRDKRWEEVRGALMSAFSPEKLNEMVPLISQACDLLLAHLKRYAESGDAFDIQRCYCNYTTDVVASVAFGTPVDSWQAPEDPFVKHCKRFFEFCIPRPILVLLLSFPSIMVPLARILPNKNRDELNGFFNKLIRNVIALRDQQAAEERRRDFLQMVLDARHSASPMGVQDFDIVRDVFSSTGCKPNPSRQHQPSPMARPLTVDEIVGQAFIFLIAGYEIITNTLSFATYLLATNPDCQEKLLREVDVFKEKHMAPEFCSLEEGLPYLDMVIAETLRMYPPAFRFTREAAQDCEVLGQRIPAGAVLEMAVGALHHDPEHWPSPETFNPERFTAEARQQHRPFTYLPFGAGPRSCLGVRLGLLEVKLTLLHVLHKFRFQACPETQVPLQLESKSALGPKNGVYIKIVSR
Protocol: The ability of the compound of the present invention to be an effective thromboxane synthase inhibitor were evaluated in the following Thromboxane Synthase Inhibition (TSI) Assay with the results shown in Table 1 below:
Method for Thromboxane Synthase Inhibition (TSI) Test:
(§1) The test compound - 6-azaindole-1-hexanoic acid (the compound of Example 1, Part D) was dissolved in dimethylsulfoxide at varying concentrations. The compound solutions and dimethylsulfoxide alone (vehicle) were incubated with fresh whole human blood that had been anticoagulated with 0.38% trisodium citrate, for 30 minutes at 37° C. After 30 minutes, 0.025 ml of 0.5 M calcium chloride solution was added to each 1 ml of blood and further incubated for one hour at 37° C. Serum was prepared by centrifugation of the blood at 2000 x g for 15 minutes in a Beckman table top centrifuge. Serum TXB2 and 6-keto-PGF1a, the stable metabolites of and markers of synthesis of TXA2 and prostacyclin respectively, were measured by radioimmunoassay by commonly used test methods (see, Refs.,1 & 2 below). Results from the radioimmunoassay of TXB2 are shown in Table 1 and indicate the dose-dependent potency of the compound of Example 1, Part D as a thromboxane synthase inhibitor.

[2] = test system: thromboxane synthase; assay: Oral activity: serum TXB2 in rats one hour after oral dosing; type: in vivo; details: blood one hour after dosing, mean ± SE, n = 3, dose 0: 340
Protocol: The oral activity of 6-azaindole-1-hexanoic acid was established by treating rats via the oral route with solutions of the compound and one hour later collecting blood. The blood was allowed to clot in glass tubes for 1 hour at 37° C. Serum was collected after sedimentation of the clot by centrifugation at 2000 x g for 15 minutes in a Beckman table top centrifuge. The levels of TXB2 were measured in the serum by radioimmunoassay. Decreased levels of TXB2 indicate the presence of compound in the blood resulting from oral absorption. The results of these experiments are shown in Table 3 and document the availability of the compound via the oral route of administration and the dose-dependency of the desired inhibitory effect on serum TXB2.

[3] = test system: cyclooxygenase and prostacyclin synthase; assay: Serum 6-keto-PGF1a by radioimmunoassay in whole human blood (specificity of TSI); type: cell-based; details: for Serum 6-keto-PGF1a: whole human blood, mean ± SE, n = 3, vehicle 1.6 ± 0.2
Protocol: as §1
Data determined from the radioimmunoassay of serum 6-keto-PGF1a (reflecting prostacyclin generation) allowed a determination of the specificity of 6-azaindole-1-hexanoic acid for the inhibition of thromboxane synthase versus cyclooxygenase and prostacyclin synthase as indicated by the serum levels of 6-keto-PGF1a. These values decrease in the presence of a nonspecific inhibitor (i.e., aspirin) but are unchanged or increased by specific TSI. The data in Table 2 documents the expected dose-dependent stimulatory effect of the compound of 6-azaindole-1-hexanoic acid on human serum 6-keto-PGF1a levels and confirm the specific TSI by 6-azaindole-1-hexanoic acid.

Serum TXB2 ([1]; 0.01 μM compound): 235 ng/mL | Serum TXB2 ([1]; 0.1 μM compound): 109 ng/mL | Serum TXB2 ([1]; 1 μM compound): 18.8 ng/mL | IC50 ([1]; serum TXB2, mean±SE, n=3, read-out: IC50 (concentration required to reduce thromboxane generation to 50% of vehicle)): 23 ± 4.1 nM | Specificity for inhibition of thromboxane synthase versus cyclooxygenase and prostacyclin synthase ([3]; judged from human serum 6-keto-PGF1a levels): specific TSI
SMILES: O=C(O)CCCCCn1ccc2ccncc21 [Example 1 Part D, 6-azaindole-1-hexanoic acid]
Serum TXB2 ([2]; 1 mg/kg p.o.): 85.1 ng/mL | Serum TXB2 ([2]; 10 mg/kg p.o.): 18.4 ng/mL | Serum 6-keto-PGF1a ([3]; 0.01 μM compound): 1.7 ± 0.1 ng/mL | Serum 6-keto-PGF1a ([3]; 0.1 μM compound): 2.4 ± 0.6 ng/mL | Serum 6-keto-PGF1a ([3]; 1 μM compound): 2.6 ± 0.7 ng/mL
